Results reported in paper PMC11571207, “Stereorandomized Oncocins with Preserved Ribosome Binding and Antibacterial Activity” (Journal of Medicinal Chemistry, 2024).
Like-named read-outs stand apart in the source and are kept apart here. No end group written: not given here.

Columns and labels:
[1] = system: E. coli ribosome, U2506 of the 23S rRNA; test: Ribosome footprinting (CMCT modification of U2506); format: binding; details: 1 μM peptide, 10.5 μM CMCT, purified E. coli ribosomes (5 pmol), 25 °C; primer extension, sequencing gel
Experimental: A 5 mL culture of E. coli MG1655 (WT-cells) was grown in LB overnight (220 rpm, 37 °C). One liter LB medium was inoculated, and bacteria were grown to OD = 0.6 (220 rpm. 37 °C); cells were centrifuged in centrifuge bottles, and the pellet was resuspended in ice-cold water and transferred in 50 mL falcon tubes. Falcon tubes were centrifuged, the supernatant was removed, the pellet was resuspended in 15 mL polysome buffer (TRIS/HCl pH 7.5 20 mM, NH4Cl 100 mM, MgCl2 10 mM, EDTA 0.5 mM, β-mercaptoethanol 60 mM), frozen dropwise in N2 (l), and stored at −80 °C. The cells were ground in CryoMil with the standard program (1 min precooling, 2 min grinding 5/s, 2 min cooling, 2 min grinding 5/s). The powder was transferred in 50 mL falcon tubes containing N2 (l) and stored at −80 °C. The lysates were thawed with a water bath (30 °C), put on ice, transferred to precooled Eppendorf tubes, and centrifuged (5000 g, 2 min, 4 °C). The clear lysate was transferred to new precooled tubes, centrifuged (14 000 g, 10 min, 4 °C), and the supernatant was transferred to new precooled tubes. 300 mL of clear lysate was loaded on a 10–50% sucrose gradient in CMCT buffer (K-borate buffer pH 8 80 mM, MgCl2 25 mM, NH4Cl 100 mM) and ultracentrifuged (3 h, 234 050 g, 4 °C). The fractions containing monosomes and polysomes were collected and ultracentrifuged overnight (16 h, 260 800 g, 4 °C). The supernatant was discarded, and the pellet was washed with ice-cold CMCT buffer. The ribosomes were resuspended in 100 μL CMCT buffer with a mini magnetic stirring bar and stored on ice. The concentration of ribosomes was measured in 1/200 dilution in water.
Ribosomes (5 pmol) were mixed with 8 μL of CMCT buffer, the compound of interest 1 μM, and water to a final volume of 20 μL in a precooled tube and incubated at 25 °C for 10 min. 20 μL of CMCT (10.5 μM) in water was added and incubated at 25 °C for 30 min. The reaction was stopped with 160 μL of EDTA (30 μM), and the samples were stored on ice.
160 μL portion of RNA resuspension buffer and 40 μL of 10% SDS were added, and the samples were vigorously resuspended. 400 μL of prewarmed acid phenol was added, and the samples were incubated on a thermomixer (5 min, 1200 rpm, 65 °C). The samples were put on ice for 5 min and centrifuged (5 min, 14 000 g, RT). The watery phase was transferred to a new precooled tube, 400 μL of phenol–chloroform–isoamyl alcohol (4 °C) was added, and the samples were mixed (5 min, 1200 rpm, RT). The samples were centrifuged again (5 min, 14 000g, RT), and the watery phase was transferred to another precooled tube. 34 μL of 3 M NaOAc pH 5.5, 0.8 μL of Glycoblue and 400 μL of isopropanol were added, and the samples were incubated for 3 h at −80 °C. The samples were then centrifuged (40 min, 21 000g, 4 °C), and the pellet was washed with ice-cold 70% EtOH. The residual liquid was removed, and the samples were dried (5 min, 37 °C). The samples were resuspended in 20 μL of water, the concentration was measured, and the samples were −80 °C.
Primers designed to probe the positions 2506 of the 23S rRNA (5-[sequence]-3′) were labeled with radioactive phosphate (γ^32 P-ATP). […] To prepare primers for one reaction, 1 μL of primer (0.3 μM), 0.4 μL of 5× PNK-buffer, 0.25 μL of water, 0.2 μL of γ^32 P-ATP, and 0.15 μL of T4 PNK were mixed and incubated at 37 °C.

[2] = system: P. aeruginosa PA14 4.18 (pmrB); details: for MIC P. aeruginosa PA14 4.18 (pmrB), 12.5% MHB / MIC P. aeruginosa PA14 4.18 (pmrB), full MHB: polymyxin B resistant strain, 16–20 h at 37 °C; for MIC P. aeruginosa PA14 4.18 (pmrB), 12.5% MHB: 12.5% MHB pH 7.4; for MIC P. aeruginosa PA14 4.18 (pmrB), full MHB: full MHB pH 7.4; for MIC P. aeruginosa PA14 4.18: supplement CSV
[3] = system: K. pneumoniae NCTC418; test: Time-killing kinetic assay, K. pneumoniae; format: cell-based, Klebsiella pneumoniae; details: 8× MIC, full MHB pH 7.4, 0-6 h, n = 6
Experimental: (§1) Time-Killing Kinetic Assay
(§2) Single colonies of E. coli W3110 and K. pneumoniae NCTC418 were picked and grown overnight with shaking (180 rpm) in LB (Sigma-Aldrich, Buchs, Switzerland) medium 5 mL overnight at 37 °C. The overnight bacterial cultures were diluted to OD600 = 0.002 (2 × 10^6 CFU/mL) in fresh MHB medium. Stock solutions of AMPs in sterilized milliQ water were prepared in 1 mg/mL and were diluted to two times more than required concentration in fresh MHB (Sigma- Aldrich, Buchs, Switzerland) medium at pH 7.4. 100 μL of prepared bacteria solution in MHB and 100 μL of samples in MHB were mixed in a 96-well microtiter plate (TPP, untreated, Corning Incorporated, Kennebunk, USA). Untreated bacteria at 1 × 10^6 CFU/mL were used as a growth control. 96-well microtiter plates were incubated in 37 °C with shaking (180 rpm). Surviving bacteria were quantified at 0, 0.5, 1, 2, 4 and 6 h by plating 10 -fold dilutions of the sample in sterilized normal saline on LB agar plates. LB agar plates were incubated at 37 °C for 10 h, and the number of individual colonies was counted at each time point. The assay was performed in triplicate in a biosafety level 2 lab. […]

[4] = system: human red blood cells; test: Hemolysis assay, minimum hemolytic concentration; details: for Haemolysis on hRBC, MHC: 2.5% human red blood cells (final) in 10 mM phosphate, 150 mM NaCl, pH 7.4, 25 °C, 4 h, visual inspection; for MHC human red blood cells: supplement CSV
[5] = system: P. aeruginosa ZEM-1A; test: microbe, parasite or virus in culture; details: for MIC P. aeruginosa ZEM-1A, 12.5% MHB / MIC P. aeruginosa ZEM-1A, full MHB: clinical isolate, 16–20 h at 37 °C, cells marked c: single measurement (in duplicates); for MIC P. aeruginosa ZEM-1A, 12.5% MHB: 12.5% MHB pH 7.4; for MIC P. aeruginosa ZEM-1A, full MHB: full MHB pH 7.4; for MIC P. aeruginosa ZEM-1A: supplement CSV, 12.5% MH pH 7.4
Outline: (§3)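 Minimal inhibitory concentrations come from broth microdilution in MH medium, with a top peptide concentration of 64 μg/mL halved serially.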

[6] = system: E. cloacae; test: microbe, parasite or virus in culture; details: for MIC E. cloacae, 12.5% MHB: 12.5% MHB pH 7.4; for MIC E. cloacae, 12.5% MHB / MIC E. cloacae, full MHB: 16–20 h at 37 °C; for MIC E. cloacae, full MHB: full MHB pH 7.4; for MIC E. cloacae: supplement CSV
Outline: as §3

[7] = system: P. aeruginosa PA14 2P4 (pmrB); test: microbe, parasite or virus in culture; details: for MIC P. aeruginosa PA14 2P4 (pmrB), 12.5% MHB / MIC P. aeruginosa PA14 2P4 (pmrB), full MHB: polymyxin B resistant strain, 16–20 h at 37 °C; for MIC P. aeruginosa PA14 2P4 (pmrB), 12.5% MHB: 12.5% MHB pH 7.4; for MIC P. aeruginosa PA14 2P4 (pmrB), full MHB: full MHB pH 7.4; for MIC P. aeruginosa PA14 2P4: supplement CSV
Outline: as §3

[8] = system: P. aeruginosa PA14; test: microbe, parasite or virus in culture; details: for MIC P. aeruginosa PA14, 12.5% MHB: 12.5% MHB pH 7.4; for MIC P. aeruginosa PA14, 12.5% MHB / MIC P. aeruginosa PA14, full MHB: 16–20 h at 37 °C, two different duplicate MIC determinations; for MIC P. aeruginosa PA14, full MHB: full MHB pH 7.4; for MIC P. aeruginosa PA14: supplement CSV
Outline: as §3

[9] = system: P. aeruginosa ZEM9A; test: microbe, parasite or virus in culture; details: for MIC P. aeruginosa ZEM9A, 12.5% MHB / MIC P. aeruginosa ZEM9A, full MHB: clinical isolate, 16–20 h at 37 °C; for MIC P. aeruginosa ZEM9A, 12.5% MHB: 12.5% MHB pH 7.4; for MIC P. aeruginosa ZEM9A, full MHB: full MHB pH 7.4; for MIC P. aeruginosa ZEM9A: supplement CSV
Outline: as §3

[10] = system: E. coli W3110; test: Time-killing kinetic assay, E. coli; format: cell-based, Escherichia coli; details: 8× MIC, full MHB pH 7.4, 0-6 h, n = 6
Experimental: as §1, §2

Question: With “VDKPPYLPRPRPPRRIYNR [sr5Cterm-Onc] (VDKPPYLPRPRPPRRIYNR-NH2; also: residues 15-19 stereorandomized (1:1 L/D mixture)) [oncocin with the five C-terminal residues stereorandomized]” as the sequence, how does the “Protection of U2506 of 23S rRNA from CMCT modification (band at C2507)” value [1] read?
Answer: protected from CMCT modification

Question: And the “MIC P. aeruginosa PA14 4.18 (pmrB), 12.5% MHB” value [2]?
Answer: 8 µg/mL

Question: And the “MIC P. aeruginosa PA14 4.18 (pmrB), full MHB” value [2]?
Answer: 64 µg/mL

Question: What about the “MIC P. aeruginosa PA14 4.18” value ([2]; 12.5% MH pH 7.4) of the same sequence?
Answer: 8 µg/mL

Question: What about the “MIC P. aeruginosa PA14 4.18” value ([2]; full MH pH 7.4) of the same sequence?
Answer: 64 µg/mL

Question: What about the “Killing profile against K. pneumoniae” value [3] of the same sequence?
Answer: comparable kinetics to L-Onc

Question: And the “Haemolysis on hRBC, MHC” value [4]?
Answer: >1000 µg/mL

Question: What about the “MHC human red blood cells” value [4] of the same sequence?
Answer: >1000 µg/mL

Question: What about the “MIC P. aeruginosa ZEM-1A, 12.5% MHB” value [5] of the same sequence?
Answer: 4 to 8 µg/mL

Question: And the “MIC P. aeruginosa ZEM-1A, full MHB” value [5]?
Answer: 64 µg/mL

Question: And the “MIC P. aeruginosa ZEM-1A” value [5]?
Answer: 4 to 8 µg/mL

Question: What about the “MIC E. cloacae, 12.5% MHB” value [6] of the same sequence?
Answer: 1 µg/mL

Question: And the “MIC E. cloacae, full MHB” value [6]?
Answer: 32 µg/mL

Question: What about the “MIC E. cloacae” value ([6]; 12.5% MH pH 7.4) of the same sequence?
Answer: 1 µg/mL

Question: And the “MIC E. cloacae” value ([6]; full MH pH 7.4)?
Answer: 32 µg/mL

Question: What about the “MIC P. aeruginosa PA14 2P4 (pmrB), 12.5% MHB” value [7] of the same sequence?
Answer: 2 µg/mL

Question: And the “MIC P. aeruginosa PA14 2P4 (pmrB), full MHB” value [7]?
Answer: > 64 µg/mL

Question: What about the “MIC P. aeruginosa PA14 2P4” value ([7]; 12.5% MH pH 7.4) of the same sequence?
Answer: 2 µg/mL

Question: And the “MIC P. aeruginosa PA14 2P4” value ([7]; full MH pH 7.4)?
Answer: >64 µg/mL

Question: What about the “MIC P. aeruginosa PA14, 12.5% MHB” value [8] of the same sequence?
Answer: 8 µg/mL

Question: And the “MIC P. aeruginosa PA14, full MHB” value [8]?
Answer: > 64 µg/mL

Question: And the “MIC P. aeruginosa PA14” value ([8]; 12.5% MH pH 7.4)?
Answer: 8 µg/mL

Question: What about the “MIC P. aeruginosa PA14” value ([8]; full MH pH 7.4) of the same sequence?
Answer: >64 µg/mL

Question: And the “MIC P. aeruginosa ZEM9A, 12.5% MHB” value [9]?
Answer: 8 µg/mL

Question: And the “MIC P. aeruginosa ZEM9A, full MHB” value [9]?
Answer: > 64 µg/mL

Question: What about the “MIC P. aeruginosa ZEM9A” value ([9]; 12.5% MH pH 7.4) of the same sequence?
Answer: 8 µg/mL

Question: And the “MIC P. aeruginosa ZEM9A” value ([9]; full MH pH 7.4)?
Answer: >64 µg/mL

Question: And the “Killing profile against E. coli” value [10]?
Answer: comparable kinetics to L-Onc

Question: Which results are given for “VDKPPYLPRPRPPRRIYNR [sr9Cterm-Onc] (VDKPPYLPRPRPPRRIYNR-NH2; also: residues 11-19 stereorandomized (1:1 L/D mixture)) [oncocin containing nine stereorandomized C-terminal residues]”?
Answer: Protection of U2506 of 23S rRNA from CMCT modification (band at C2507) [1]: protected from CMCT modification; MIC P. aeruginosa PA14 4.18 (pmrB), 12.5% MHB [2]: 8 µg/mL; MIC P. aeruginosa PA14 4.18 (pmrB), full MHB [2]: 64 µg/mL; MIC P. aeruginosa PA14 4.18 ([2]; 12.5% MH pH 7.4): 8 µg/mL; MIC P. aeruginosa PA14 4.18 ([2]; full MH pH 7.4): 64 µg/mL; Killing profile against K. pneumoniae [3]: comparable kinetics to L-Onc; Haemolysis on hRBC, MHC [4]: >1000 µg/mL; MHC human red blood cells [4]: >1000 µg/mL; MIC P. aeruginosa ZEM-1A, 12.5% MHB [5]: 4 to 8 µg/mL; MIC P. aeruginosa ZEM-1A, full MHB [5]: 64 µg/mL; MIC P. aeruginosa ZEM-1A [5]: 4 to 8 µg/mL; MIC E. cloacae, 12.5% MHB [6]: 1 µg/mL; MIC E. cloacae, full MHB [6]: 32 µg/mL; MIC E. cloacae ([6]; 12.5% MH pH 7.4): 1 µg/mL; MIC E. cloacae ([6]; full MH pH 7.4): 32 µg/mL; MIC P. aeruginosa PA14 2P4 (pmrB), 12.5% MHB [7]: 4 µg/mL; MIC P. aeruginosa PA14 2P4 (pmrB), full MHB [7]: > 64 µg/mL; MIC P. aeruginosa PA14 2P4 ([7]; 12.5% MH pH 7.4): 4 µg/mL; MIC P. aeruginosa PA14 2P4 ([7]; full MH pH 7.4): >64 µg/mL; MIC P. aeruginosa PA14, 12.5% MHB [8]: 8 µg/mL; MIC P. aeruginosa PA14, full MHB [8]: > 64 µg/mL; MIC P. aeruginosa PA14 ([8]; 12.5% MH pH 7.4): 8 µg/mL; MIC P. aeruginosa PA14 ([8]; full MH pH 7.4): >64 µg/mL; MIC P. aeruginosa ZEM9A, 12.5% MHB [9]: 8 µg/mL; MIC P. aeruginosa ZEM9A, full MHB [9]: > 64 µg/mL; MIC P. aeruginosa ZEM9A ([9]; 12.5% MH pH 7.4): 8 µg/mL; MIC P. aeruginosa ZEM9A ([9]; full MH pH 7.4): >64 µg/mL; Killing profile against E. coli [10]: comparable kinetics to L-Onc
